Data published in PubChem BioAssay (NCI).
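Values below derive from 48-hour exposures of cells grown in 96-well plates, with endpoints linearly interpolated between the two concentrations bracketing the appropriate inhibition level. GI50 = concentration required for 50% inhibition of growth. TGI: total growth inhibition.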

Tests used:
Assay in all cases: NCI-60 cell line screen, 48 h
[1] = tested on: 786-0 renal
[2] = tested on: A498 renal
[3] = tested on: A549 NSCLC
[4] = tested on: ACHN renal
[5] = tested on: BT-549 breast
[6] = tested on: CAKI-1 renal
[7] = tested on: CCRF-CEM leukemia
[8] = tested on: COLO 205 colon
[9] = tested on: DU-145 prostate
[10] = tested on: HCC-2998 colon
[11] = tested on: HCT-116 colon
[12] = tested on: HCT-15 colon
[13] = tested on: HL-60(TB) leukemia
[14] = tested on: HOP-62 NSCLC
[15] = tested on: HOP-92 NSCLC
[16] = tested on: HS 578T breast
[17] = tested on: HT29 colon
[18] = tested on: IGROV1 ovarian
[19] = tested on: K-562 leukemia
[20] = tested on: KM12 colon
[21] = tested on: LOX IMVI melanoma
[22] = tested on: M14 melanoma
[23] = tested on: MALME-3M melanoma
[24] = tested on: MCF7 breast
[25] = tested on: MDA-MB-231 breast
[26] = tested on: MDA-MB-435
[27] = tested on: MOLT-4 leukemia
[28] = tested on: NCI-H226 lung
[29] = tested on: NCI-H460 lung
[30] = tested on: NCI-H522 lung
[31] = tested on: NCI/ADR-RES ovarian
[32] = tested on: OVCAR-3 ovarian
[33] = tested on: OVCAR-4 ovarian
[34] = tested on: OVCAR-5 ovarian
[35] = tested on: OVCAR-8 ovarian
[36] = tested on: PC-3 prostate
[37] = tested on: RPMI-8226 leukemia
[38] = tested on: RXF 393 renal
[39] = tested on: SF-268 CNS
[40] = tested on: SF-295 CNS
[41] = tested on: SF-539 CNS
[42] = tested on: SK-MEL-2 melanoma
[43] = tested on: SK-MEL-28 melanoma
[44] = tested on: SK-MEL-5 melanoma
[45] = tested on: SK-OV-3 ovarian
[46] = tested on: SN12C renal
[47] = tested on: SNB-19 CNS
[48] = tested on: SNB-75 CNS
[49] = tested on: SR leukemia
[50] = tested on: SW-620 colon
[51] = tested on: T-47D breast
[52] = tested on: U251 CNS
[53] = tested on: UACC-257 melanoma
[54] = tested on: UACC-62 melanoma
[55] = tested on: UO-31 renal

O=C1C(Br)=CC2C1C1C3CCC3C2(Br)C12OCCO2 (stereo not given)
GI50 [1]: 4.32 µM
TGI [1]: 16 µM
GI50 [2]: 2.99 µM
TGI [2]: 11.4 µM
GI50 [3]: 2.29 µM
TGI [3]: 10.9 µM
GI50 [4]: 2.94 µM
TGI [4]: 12.2 µM
GI50 [5]: 5.03 µM
TGI [5]: 18.1 µM
GI50 [6]: 4.1 µM
TGI [6]: 17.6 µM
GI50 [7]: 1.82 µM
TGI [7]: 10.5 µM
GI50 [8]: 3.35 µM
TGI [8]: 10.9 µM
GI50 [9]: 3.22 µM
TGI [9]: 13.8 µM
GI50 [10]: 6.6 µM
TGI [10]: 20.5 µM
GI50 [11]: 2.08 µM
TGI [11]: 10.3 µM
GI50 [12]: 1.22 µM
TGI [12]: 3.49 µM
GI50 [13]: 2.2 µM
TGI [13]: 5.66 µM
GI50 [14]: 4.25 µM
TGI [14]: 16.5 µM
GI50 [15]: 5.08 µM
TGI [15]: 21.8 µM
GI50 [16]: 3.46 µM
TGI [16]: 71 µM
GI50 [17]: 2.75 µM
TGI [17]: 10.3 µM
GI50 [18]: 2.89 µM
TGI [18]: 12.7 µM
GI50 [19]: 2.98 µM
TGI [19]: 13 µM
GI50 [20]: 2.39 µM
TGI [20]: 8.4 µM
GI50 [21]: 1.21 µM
TGI [21]: 3.74 µM
GI50 [22]: 4.45 µM
TGI [22]: 19.9 µM
GI50 [23]: 4.45 µM
TGI [23]: 21.3 µM
GI50 [24]: 1.98 µM
TGI [24]: 12.8 µM
GI50 [25]: 1.84 µM
TGI [25]: 11.4 µM
GI50 [26]: 2.93 µM
TGI [26]: 13.4 µM
GI50 [27]: 3.64 µM
TGI [27]: 10.8 µM
GI50 [28]: 3.55 µM
TGI [28]: 20.4 µM
GI50 [29]: 2.08 µM
TGI [29]: 10.2 µM
GI50 [30]: 1.82 µM
TGI [30]: 4.73 µM
GI50 [31]: 4.84 µM
TGI [31]: 41 µM
GI50 [32]: 3.24 µM
TGI [32]: 9.88 µM
GI50 [33]: 2.79 µM
TGI [33]: 14.7 µM
GI50 [34]: 2.47 µM
TGI [34]: 8.91 µM
GI50 [35]: 2.8 µM
TGI [35]: 12.3 µM
GI50 [36]: 3.47 µM
TGI [36]: 19 µM
GI50 [37]: 1.71 µM
TGI [37]: 5.76 µM
GI50 [38]: 2.64 µM
TGI [38]: 11.6 µM
GI50 [39]: 2.5 µM
TGI [39]: 15.5 µM
GI50 [40]: 9.69 µM
TGI [40]: 27.5 µM
GI50 [41]: 2.15 µM
TGI [41]: 5.99 µM
GI50 [42]: 3.17 µM
TGI [42]: 9.09 µM
GI50 [43]: 3.98 µM
TGI [43]: 18 µM
GI50 [44]: 3.19 µM
TGI [44]: 14.4 µM
GI50 [45]: 4.3 µM
TGI [45]: 15.3 µM
GI50 [46]: 3.08 µM
TGI [46]: 15.3 µM
GI50 [47]: 9.65 µM
TGI [47]: 23 µM
GI50 [48]: 3.42 µM
TGI [48]: 34.7 µM
GI50 [49]: 0.721 µM
TGI [49]: 6.57 µM
GI50 [50]: 3.12 µM
TGI [50]: 11.6 µM
GI50 [51]: 2.48 µM
TGI [51]: 12.9 µM
GI50 [52]: 2.88 µM
TGI [52]: 13 µM
GI50 [53]: 2.14 µM
TGI [53]: 12.5 µM
GI50 [54]: 2.87 µM
TGI [54]: 14.1 µM
GI50 [55]: 3.4 µM
TGI [55]: 13.4 µM
